# In ChEMBL document CHEMBL3885861, “Open TG-GATES”:
# Species: Rattus norvegicus
# Test: Open TG-GATES - Regimen: Daily Repeat
# Assay type: toxicity, organism-based, Sprague-Dawley
# Design: regimen Daily Repeat, gender Male, age 6 weeks
# Details: in vivo, po, 45 mg/kg, route gavage, dose level High; for APTT / Bas / Eos / Fbg / Hb / Ht / Lym / MCH / MCHC / MCV / Mono / Neu / PT / Plat / RBC / Ret / WBC: tissue Blood
# [1] = 72 h, tissue Kidney, time 3 day
# [2] = 72 h, tissue Plasma, time 3 day
structure (smiles),measurement,setting,value
CC(=N)S [THIOACETAMIDE],TERMINAL_BW,"72 h, time 3 day",211.8 g
same,APTT,"72 h, time 3 day",17.5 s
same,Bas,"72 h, time 3 day",0%
same,Eos,"72 h, time 3 day",1.4%
same,Fbg,"72 h, time 3 day",296 mg/dL
same,Hb,"72 h, time 3 day",14.4 g/dL
same,Ht,"72 h, time 3 day",44%
same,Lym,"72 h, time 3 day",75.4%
same,MCH,"72 h, time 3 day",20.3 pg
same,MCHC,"72 h, time 3 day",32.8%
same,MCV,"72 h, time 3 day",62.1 fL
same,Mono,"72 h, time 3 day",9.2%
same,Neu,"72 h, time 3 day",14%
same,PT,"72 h, time 3 day",12.4 s
same,Plat,"72 h, time 3 day",112.5 x10_4/uL
same,RBC,"72 h, time 3 day",711.2 x10_4/ul
same,Ret,"72 h, time 3 day",4.8%
same,WBC,"72 h, time 3 day",144.4 x10_2/uL
same,KIDNEY_L,[1],1 g
same,KIDNEY_R,[1],1.1 g
same,KIDNEY_TOTAL,[1],2.1 g
same,LIVER,"72 h, tissue Liver, time 3 day",12.3 g
same,A/G,[2],1.8
same,ALP,[2],923.2 IU/L
same,ALT,[2],47.8 IU/L
same,AST,[2],179.6 IU/L
same,BUN,[2],16.4 mg/dL
same,CRE,[2],0.6 mg/dL
same,Ca,[2],10.9 mg/dL
same,Cl,[2],104.2 meq/L
same,DBIL,[2],0.086 mg/dL
same,GLC,[2],174.8 mg/dL
same,IP,[2],8.1 mg/dL
same,K,[2],5.1 meq/L
same,LDH,[2],338.2 IU/L
same,Na,[2],136 meq/L
same,PL,[2],189.8 mg/dL
same,RALB,[2],3.7 g/dL
same,TBIL,[2],0.3 mg/dL
same,TC,[2],102 mg/dL
same,TG,[2],115.4 mg/dL
same,TP,[2],5.8 g/dL
same,gamma-GTP,[2],2.2 IU/L
same,TERMINAL_BW,"[…], time 7 day",217.5 g
same,TERMINAL_BW,"[…], time 14 day",249.4 g
same,TERMINAL_BW,"[…], time 28 day",277.2 g
same,APTT,"[…], time 7 day",16.5 s
same,Bas,"[…], time 7 day",0%
same,Eos,"[…], time 7 day",1%
same,Fbg,"[…], time 7 day",236 mg/dL
same,Hb,"[…], time 7 day",14.7 g/dL
same,Ht,"[…], time 7 day",44%
same,Lym,"[…], time 7 day",81%
same,MCH,"[…], time 7 day",20.1 pg
same,MCHC,"[…], time 7 day",33.5%
same,MCV,"[…], time 7 day",60 fL
same,Mono,"[…], time 7 day",5.6%
same,Neu,"[…], time 7 day",12.6%
same,PT,"[…], time 7 day",14.3 s
same,Plat,"[…], time 7 day",159.2 x10_4/uL
same,RBC,"[…], time 7 day",734.2 x10_4/ul
same,Ret,"[…], time 7 day",2%
same,WBC,"[…], time 7 day",180.4 x10_2/uL
same,APTT,"[…], time 14 day",16.7 s
same,Bas,"[…], time 14 day",0%
same,Eos,"[…], time 14 day",1%
same,Fbg,"[…], time 14 day",228.4 mg/dL
same,Hb,"[…], time 14 day",14.7 g/dL
same,Ht,"[…], time 14 day",43.7%
same,Lym,"[…], time 14 day",77.8%
same,MCH,"[…], time 14 day",19.7 pg
same,MCHC,"[…], time 14 day",33.5%
same,MCV,"[…], time 14 day",58.9 fL
same,Mono,"[…], time 14 day",5.4%
same,Neu,"[…], time 14 day",16.2%
same,PT,"[…], time 14 day",14.4 s
same,Plat,"[…], time 14 day",123.1 x10_4/uL
same,RBC,"[…], time 14 day",742.6 x10_4/ul
same,Ret,"[…], time 14 day",2.7%
same,WBC,"[…], time 14 day",176.2 x10_2/uL
same,APTT,"[…], time 28 day",17.6 s
same,Bas,"[…], time 28 day",0%
same,Eos,"[…], time 28 day",0.6%
same,Fbg,"[…], time 28 day",218 mg/dL
same,Hb,"[…], time 28 day",15.6 g/dL
same,Ht,"[…], time 28 day",45.4%
